Counter-ions that a name gives are not always drawn.
Experiments:
[1] = test system: human three-dimensional culture epidermal model (LabCyte EPI-MODEL); assay: Suppression by cholesterol of skin irritation mediator production induced by drugs in a human epidermal cell (Experiment 2); type: cell-based
Protocol: (§1) A human three-dimensional epidermal culture model obtained by multilayer-culturing a human normal epidermal cell (LabCyte EPI-MODEL, manufactured by Japan Tissue Engineering Co., Ltd.) was used. LabCyte is a cultured skin cultured in a transwell. For the experiment, LabCyte was used with the transwell.
(§2) The experiment was conducted as below. First, LabCyte was put into a 24-well assay plate. Then, 1 ml of assay medium (Japan Tissue Engineering Co., Ltd.) was added so that it was brought into contact with a bottom surface of the cultured skin in each well of the 24-well assay plate, and was pre-cultured in an incubator with 5% of carbon dioxide concentration at 37° C. for 1 hour.
(§3) The test solutions of each group were added to the cells, the culture solutions incubated for 48 hours were collected, and a production amount of each skin irritation mediator was measured. The skin irritation mediator was measured by using a commercially available ELISA kit (manufactured by R&D Systems, Inc.). A relative production amount of the skin irritation mediator in each test substance was calculated as below, when the production amount of the skin irritation mediator in the PMA Only Group was set to 100.
Cholesterol was used as a test substance. The drugs shown in Table 2 were used as the cutaneous irritants.
Tests were conducted by the following group composition. • Drug Only Group: A group with addition of only the drug dispersed in a vehicle, as a test solution. Concentrations of the drugs are shown in Table 2. • Drug Plus Cholesterol Group: A group with addition of the drug and 1% by mass of cholesterol which were dispersed in a vehicle, as a test solution.
The experiment was conducted while other conditions were set in the same manner as in Experiment 1.

[2] = test system: human three-dimensional culture epidermal model (LabCyte EPI-MODEL); assay: Production of skin irritation mediators induced by PMA in human three-dimensional epidermal culture model (Experiment 1); type: cell-based; settings: for Effect on skin irritation mediator production by PMA (in words): summary of Table 1; for Relative Production Amount of Skin Irritation Mediator when Production Amount in PMA Only Group is Set to 100: IL-1α / Relative Production Amount of Skin Irritation Mediator when Production Amount in PMA Only Group is Set to 100: IL-6 / Relative Production Amount of Skin Irritation Mediator when Production Amount in PMA Only Group is Set to 100: IL-8 / Relative Production Amount of Skin Irritation Mediator when Production Amount in PMA Only Group is Set to 100: PGE2: 48 hours
From the text: Changes in production amounts of skin irritation mediators by test substances were examined when cutaneous irritants were caused to act on a human three-dimensional culture epidermal model.
as §1
As test substances, there were used cholesterol (manufactured by Wako Pure Chemical Industries, Ltd.), β-sitosterol (manufactured by TAMA BIOCHEMICAL CO., LTD.), α-spinasterol (manufactured by ChromaDex, Inc.), ergosterol (manufactured by Wako Pure Chemical Industries, Ltd.), campesterol (manufactured by TAMA BIOCHEMICAL CO., LTD.), glycyrrhizin (manufactured by Wako Pure Chemical Industries, Ltd.), glycyrrhetinic acid (manufactured by Wako Pure Chemical Industries, Ltd.), ginsenoside (manufactured by Wako Pure Chemical Industries, Ltd.), squalene (manufactured by Wako Pure Chemical Industries, Ltd.), squalane (manufactured by Tokyo Chemical Industry Co., Ltd.) and lanosterol (manufactured by ChromaDex, Inc.), which are candidates of a skin irritation suppressant.
As skin irritants, Phorbol 12-Myristate 13-Acetate (PMA, manufactured by Wako Pure Chemical Industries, Ltd.) was used. In addition, as vehicle, olive oil (manufactured by Wako Pure Chemical Industries, Ltd.) was used.
Experiments were conducted by the following group composition. • PMA Only Group: A group with addition of only 0.00001 mol of PMA dispersed in a vehicle, as a test solution. • Test Substance Group: A group with addition of 0.00001 mol of PMA and the test substance which were dispersed in a vehicle, as a test solution.
as §2
Next, a cell survival rate was measured by the MTT method after causing the test solutions of each group to act. Specifically, 50 μL of the test solution of each group was added to the surface of the LabCyte after preculture, was cultured in the incubator with 5% of carbon dioxide concentration at 37° C. for 48 hours, then was transferred to the assay medium comprising 0.5 mg/ml of MTT reagent, and was cultured in the incubator with 5% of carbon oxide level at 37° C. for 3 hours. Then, LabCyte was immersed in 0.3 ml of an isopropanol solution, and the produced blue-purple formazan was extracted for 2 hours. After extraction, an absorbance at 570 nm was measured by a 96 microplate reader. The cell survival rate was calculated as below.
Cell survival rate (%)=(absorbance of Test Substance Group)/(absorbance of PMA Only Group)×100
Subsequently, a production amount of the skin irritation mediator at a test substance concentration with 80% or more of cell survival rate was measured. As skin irritation mediators, PGE2, IL-1α, IL-6, IL-8 were measured.
as §3
Relative production amount=(production amount of the mediator in Test Substance Group)/(production amount of the mediator in PMA Only Group)×100

[3] = Drug Plus Cholesterol Group: drug 1 × 10^−3 M plus 1% by mass of cholesterol
[4] = Drug Plus Cholesterol Group: drug 8 × 10^−5 M plus 1% by mass of cholesterol
[5] = test substance 0.1 mass % with PMA in olive oil
[6] = test substance 1 mass % with PMA in olive oil

Cc1nc2n(c(=O)c1CCN1CCC(c3noc4cc(F)ccc34)CC1)CCCC2 [Risperidone]
Relative Production Amount of Skin Irritation Mediator when Production Amount in Drug Only Group is Set to 100: IL-1α [1, 3]: 14 | Relative Production Amount of Skin Irritation Mediator when Production Amount in Drug Only Group is Set to 100: IL-6 [1, 3]: 77 | Relative Production Amount of Skin Irritation Mediator when Production Amount in Drug Only Group is Set to 100: IL-8 [1, 3]: 38 | Relative Production Amount of Skin Irritation Mediator when Production Amount in Drug Only Group is Set to 100: PGE2 [1, 3]: 80

Cc1ccc(O)c([C@H](CCN(C(C)C)C(C)C)c2ccccc2)c1 [Tolterodine Tartrate]
Relative Production Amount of Skin Irritation Mediator when Production Amount in Drug Only Group is Set to 100: IL-1α [1, 4]: 48 | Relative Production Amount of Skin Irritation Mediator when Production Amount in Drug Only Group is Set to 100: IL-6 [1, 4]: 92 | Relative Production Amount of Skin Irritation Mediator when Production Amount in Drug Only Group is Set to 100: IL-8 [1, 4]: 66 | Relative Production Amount of Skin Irritation Mediator when Production Amount in Drug Only Group is Set to 100: PGE2 [1, 4]: 58

CC[C@H](/C=C/[C@@H](C)[C@H]1CC[C@H]2C3=CC[C@H]4C[C@@H](O)CC[C@]4(C)[C@H]3CC[C@]12C)C(C)C [α-spinasterol]
Effect on skin irritation mediator production by PMA (in words) [2]: exhibited effects of suppressing the skin irritation mediator production by PMA | Relative Production Amount of Skin Irritation Mediator when Production Amount in PMA Only Group is Set to 100: IL-1α [2, 5]: 38 | Relative Production Amount of Skin Irritation Mediator when Production Amount in PMA Only Group is Set to 100: IL-6 [2, 5]: 109 | Relative Production Amount of Skin Irritation Mediator when Production Amount in PMA Only Group is Set to 100: IL-8 [2, 5]: 72 | Relative Production Amount of Skin Irritation Mediator when Production Amount in PMA Only Group is Set to 100: PGE2 [2, 5]: 43

CC[C@H](CC[C@@H](C)[C@H]1CC[C@H]2[C@@H]3CC=C4C[C@@H](O)CC[C@]4(C)[C@H]3CC[C@]12C)C(C)C [β-sitosterol]
Effect on skin irritation mediator production by PMA (in words) [2]: exhibited effects of suppressing the skin irritation mediator production by PMA | Relative Production Amount of Skin Irritation Mediator when Production Amount in PMA Only Group is Set to 100: IL-1α [2, 6]: 101 | Relative Production Amount of Skin Irritation Mediator when Production Amount in PMA Only Group is Set to 100: IL-6 [2, 6]: 100 | Relative Production Amount of Skin Irritation Mediator when Production Amount in PMA Only Group is Set to 100: IL-8 [2, 6]: 34 | Relative Production Amount of Skin Irritation Mediator when Production Amount in PMA Only Group is Set to 100: PGE2 [2, 6]: 44

ginsenoside
Effect on skin irritation mediator production by PMA (in words) [2]: exhibited effects of suppressing the skin irritation mediator production by PMA | Relative Production Amount of Skin Irritation Mediator when Production Amount in PMA Only Group is Set to 100: IL-1α [2, 5]: 77 | Relative Production Amount of Skin Irritation Mediator when Production Amount in PMA Only Group is Set to 100: IL-6 [2, 5]: 70 | Relative Production Amount of Skin Irritation Mediator when Production Amount in PMA Only Group is Set to 100: IL-8 [2, 5]: 90 | Relative Production Amount of Skin Irritation Mediator when Production Amount in PMA Only Group is Set to 100: PGE2 [2, 5]: 121

From patent US20130053357A1, “SKIN IRRITATION SUPPRESSANT AND TRANSDERMAL PREPARATION” (HISAMITSU PHARMACEUTICAL CO., INC., priority 2010, published 2013)
